According to patent US20240083857A1, “2-Methyl-Quinazolines” (Bayer Pharma Aktiengesellschaft, priority 2017, published 2024):
pIC50: −log10 of the molar value.

What was measured:
[1] = biological target: K-Ras^G12C : hSOS1 interaction (Homo sapiens, UniProt Q07889); experiment: Biochemical assay 1: K-Ras^G12C interaction assay with hSOS1 (HTRF); type: binding; details: read-out: Assay 1 (KRAS-SOS Interaction) activity expressed as IC50
[2] = biological target: human SOS1 (loading of human K-Ras^G12C-GDP with fluorescent GTP-analog) (Homo sapiens, UniProt Q07889); experiment: Biochemical assay 3: K-Ras^G12C activation assay by hSOS1 (HTRF); details: no GTP; for pIC50: read-out: Assay 3 (KRAS-Activation by SOS no GTP) activity expressed as IC50

## COc1cc2nc(C)nc(NC(C)c3ccc4c(c3)OCO4)c2cc1OC (stereo not drawn) [Example 23, N-[1-(1,3-benzodioxol-5-yl)ethyl]-6,7-dimethoxy-2-methylquinazolin-4-amine]
[1]
  pIC50: 5.57
[2]
  pIC50: 5.06

## COc1cc2nc(C)nc(NC(C)c3ccc4c(c3)NC(=O)CO4)c2cc1OC (stereo not drawn) [Example 34, 6-{1-[(6,7-dimethoxy-2-methylquinazolin-4-yl)amino]ethyl}-2H-1,4-benzoxazin-3(4H)-one]
[1]
  pIC50: 5.37
[2]
  pIC50: 4.77

## COc1cc2nc(C)nc(N[C@H](C)c3cccc(-c4cn[nH]c4)c3)c2cc1O [Example 345, 7-methoxy-2-methyl-4-({(1R)-1-[3-(1H-pyrazol-4-yl)phenyl]ethyl}amino)quinazolin-6-ol]
[1]
  pIC50: 4.84
[2]
  pIC50: 4.53

## COc1cc2nc(C)nc(NC(C)c3ccc(-c4ccccc4[C@@H](C)NC(=O)OC(C)(C)C)s3)c2cc1OC (stereo in doubt) [Example 358, tert-butyl {1-[2-(5-{1-[(6,7-dimethoxy-2-methylquinazolin-4-yl)amino]ethyl}thiophen-2-yl)phenyl]ethyl}carbamate]
[1]
  pIC50: 5.84
[2]
  pIC50: 5.61

## COc1cc2nc(C)nc(N[C@H](C)c3cccc(-c4cn[nH]c4)c3)c2cc1OCc1ccccc1 [Example 344, 6-(benzyloxy)-7-methoxy-2-methyl-N-{(1R)-1-[3-(1H-pyrazol-4-yl)phenyl]ethyl}-quinazolin-4-amine]
[1]
  pIC50: 6.03
[2]
  pIC50: 5.73

## COc1cc2nc(C)nc(N[C@H](C)c3cccc(-n4cccn4)c3)c2cc1OC [Example 341, 6,7-dimethoxy-2-methyl-N-{(1R)-1-[3-(1H-pyrazol-1-yl)phenyl]ethyl}quinazolin-4-amine]
[1]
  pIC50: 5.55
[2]
  pIC50: 4.91

## CCOc1cc2c(N[C@H](C)c3cccc(-c4cn[nH]c4)c3)nc(C)nc2cc1OC [Example 355, 6-Ethoxy-7-methoxy-2-methyl-N-{(1R)-1-[3-(1H-pyrazol-4-yl)phenyl]ethyl}-quinazolin-4-amine]
[1]
  pIC50: 6.31
[2]
  pIC50: 6.15

## COc1ccc2cc(C(C)Nc3nc(C)nc4cc(OC)c(OC)cc34)ccc2c1 (stereo not drawn) [Example 35, 6,7-dimethoxy-N-[1-(6-methoxy-2-naphthyl)ethyl]-2-methylquinazolin-4-amine]
[1]
  pIC50: 5.33
[2]; read-out: Assay 3 (KRAS-Activation by SOS no GTP) activity expressed as % inhibition at 20 μM, at 20 μM
  inhibition at 20 µM: 48%

## COc1cc2nc(C)nc(N[C@H](C)c3cccc(-c4cn[nH]c4)c3)c2cc1OCCC(C)C [Example 351, 7-methoxy-2-methyl-6-(3-methylbutoxy)-N-{(1R)-1-[3-(1H-pyrazol-4-yl)phenyl]ethyl}quinazolin-4-amine]
[1]
  pIC50: 5.77
[2]
  pIC50: 5.88

## CCCCNCc1ccccc1-c1ccc(C(C)Nc2nc(C)nc3cc(OC)c(OC)cc23)s1 (stereo not drawn) [Example 366, N-[1-(5-{2-[(butylamino)methyl]phenyl}thiophen-2-yl)ethyl]-6,7-dimethoxy-2-methylquinazolin-4-amine]
[1]
  pIC50: 7.01
[2]
  pIC50: 6.87

## COc1cc2nc(C)nc(N[C@H](C)c3cccc(-c4cn[nH]c4)c3)c2cc1OC(C)C [Example 353, 7-methoxy-2-methyl-6-(propan-2-yloxy)-N-{(1R)-1-[3-(1H-pyrazol-4-yl)phenyl]ethyl}quinazolin-4-amine]
[1]
  pIC50: 6.44
[2]
  pIC50: 6.34

## CCOc1cc2c(N[C@H](C)c3cccc(-c4cnn(CC)c4)c3)nc(C)nc2cc1OC [Example 356, 6-ethoxy-N-{(1R)-1-[3-(1-ethyl-1H-pyrazol-4-yl)phenyl]ethyl}-7-methoxy-2-methylquinazolin-4-amine]
[1]
  pIC50: 6.18
[2]
  pIC50: 6.03

## CCCCOc1cc2c(N[C@H](C)c3cccc(-c4cn[nH]c4)c3)nc(C)nc2cc1OC [Example 350, 6-butoxy-7-methoxy-2-methyl-N-{(1R)-1-[3-(1H-pyrazol-4-yl)phenyl]ethyl}quinazolin-4-amine]
[1]
  pIC50: 6.16
[2]
  pIC50: 6.07

## COc1cc2nc(C)nc(NC(C)c3csc4ccccc34)c2cc1OC (stereo not drawn) [Example 27, N-[1-(1-benzothiophen-3-yl)ethyl]-6,7-dimethoxy-2-methylquinazolin-4-amine]
[1]
  pIC50: 6.43
[2]
  pIC50: 6.30

## Cc1nc(N[C@H](C)c2ccc(F)cc2)c2cc(N=S(C)(C)=O)ccc2n1 [Example 32, 6-{[dimethyl(oxido)-lambda6-sulfanylidene]amino}-N-[(1R)-1-(4-fluorophenyl)ethyl]-2-methylquinazolin-4-amine]
[1]
  pIC50: 5.97
[2]
  pIC50: 5.59

## Cc1nc(N[C@H](C)c2cccc(Cl)c2)c2cc(Br)ccc2n1 [Example 363, 6-bromo-N-[(1R)-1-(3-chlorophenyl)ethyl]-2-methylquinazolin-4-amine]
[1]
  pIC50: 4.91
[2]
  pIC50: 4.76

## COc1cc2nc(C)nc(NC(C)c3ccc(-c4ccccc4CNCc4ccccc4)s3)c2cc1OC (stereo not drawn) [Example 365, N-[1-(5-{2-[(benzylamino)methyl]phenyl}thiophen-2-yl)ethyl]-6,7-dimethoxy-2-methylquinazolin-4-amine]
[1]
  pIC50: 6.33
[2]
  pIC50: 6.45

## COc1cc2nc(C)nc(NC(C)c3ccc(-c4ccccc4CNC4CCCC4)s3)c2cc1OC (stereo not drawn) [Example 364, N-[1-(5-{2-[(cyclopentylamino)methyl]phenyl}thiophen-2-yl)ethyl]-6,7-dimethoxy-2-methylquinazolin-4-amine]
[1]
  pIC50: 6.89
[2]
  pIC50: 6.66

## COc1cc2nc(C)nc(NC(C)c3c(C)nc4ccccn34)c2cc1OC (stereo not drawn) [Example 26, 6,7-dimethoxy-2-methyl-N-[1-(2-methylimidazo[1,2-a]pyridin-3-yl)ethyl]quinazolin-4-amine]
[1]
  pIC50: 5.02
[2]
  pIC50: 5.16

## COc1cc2nc(C)nc(N[C@H](C)c3cccc(-c4cn[nH]c4)c3)c2cc1OCC1CC1 [Example 346, 6-(cyclopropylmethoxy)-7-methoxy-2-methyl-N-{(1R)-1-[3-(1H-pyrazol-4-yl)phenyl]ethyl}quinazolin-4-amine]
[1]
  pIC50: 6.47
[2]
  pIC50: 6.24

## CC[C@@H](O)c1ccccc1-c1ccc(C(C)Nc2nc(C)nc3cc(OC)c(OC)cc23)s1 (stereo partly drawn) [Example 349, (1R)-1-[2-(5-{1-[(6,7-dimethoxy-2-methylquinazolin-4-yl)amino]ethyl}thiophen-2-yl)phenyl]propan-1-ol]
[1]
  pIC50: 6.64
[2]
  pIC50: 6.13

## COc1cc2nc(C)nc(NC(C)c3ccc4c(c3)CCO4)c2cc1OC (stereo not drawn) [Example 24, N-[1-(2,3-dihydro-1-benzofuran-5-yl)ethyl]-6,7-dimethoxy-2-methylquinazolin-4-amine]
[1]
  pIC50: 6.15
[2]
  pIC50: 5.61

## Cc1nc(N[C@H](C)c2ccccc2)c2cc(N=S(C)(C)=O)ccc2n1 [Example 30, 6-{[dimethyl(oxido)-lambda6-sulfanylidene]amino}-2-methyl-N-[(1R)-1-phenylethyl]quinazolin-4-amine]
[1]
  pIC50: 5.87
[2]
  pIC50: 5.54

## COc1cc2nc(C)nc(NC(C)c3ccc(-c4ccccc4-c4cn[nH]c4)s3)c2cc1OC (stereo not drawn) [Example 361, 6,7-dimethoxy-2-methyl-N-[1-{5-[2-(1H-pyrazol-4-yl)phenyl]thiophen-2-yl}ethyl]-quinazolin-4-amine]
[1]
  pIC50: 5.61
[2]
  pIC50: 5.07

## COc1cc2nc(C)nc(NC(C)c3ccc(-c4ccccc4CCNC(=O)OC(C)(C)C)s3)c2cc1OC (stereo not drawn) [Example 352, tert-butyl {2-[2-(5-{1-[(6,7-dimethoxy-2-methylquinazolin-4-yl)amino]ethyl}thiophen-2-yl)phenyl]ethyl}carbamate]
[1]
  pIC50: 4.80
[2]
  pIC50: 4.74

## CCNCc1ccccc1-c1ccc(C(C)Nc2nc(C)nc3cc(OC)c(OC)cc23)s1 (stereo not drawn) [Example 367, N-[1-(5-{2-[(ethylamino)methyl]phenyl}thiophen-2-yl)ethyl]-6,7-dimethoxy-2-methylquinazolin-4-amine]
[1]
  pIC50: 7.15
[2]
  pIC50: 7.00

## COc1cc2nc(C)nc(N[C@H](C)c3ccc(-c4ccccc4CCN)s3)c2cc1OC (stereo in doubt) [Example 357, N-[1-{5-[2-(2-aminoethyl)phenyl]thiophen-2-yl}ethyl]-6,7-dimethoxy-2-methylquinazolin-4-amine]
[1]
  pIC50: 7.29
[2]
  pIC50: 7.16

## COc1cc2nc(C)nc(N[C@H](C)c3cccc(-c4cn[nH]c4)c3)c2cc1OCC1COC1 [Example 354, 7-methoxy-2-methyl-6-(oxetan-3-ylmethoxy)-N-{(1R)-1-[3-(1H-pyrazol-4-yl)phenyl]ethyl}quinazolin-4-amine]
[1]
  pIC50: 6.50
[2]
  pIC50: 6.17

## COc1cc2nc(C)nc(N[C@H](C)c3cccc(-c4ccc(O)nc4)c3)c2cc1OC [Example 68, 5-(3-{(1R)-1-[(6,7-dimethoxy-2-methylquinazolin-4-yl)amino]ethyl}phenyl)pyridin-2-ol]
[1]
  pIC50: 6.86
[2]
  pIC50: 6.33

## COc1cc2nc(C)nc(N[C@H](C)c3cccc(Br)c3)c2cc1OCc1ccccc1 [Example 343, 6-(benzyloxy)-N-[(1R)-1-(3-bromophenyl)ethyl]-7-methoxy-2-methylquinazolin-4-amine]
[1]
  pIC50: 5.77
[2]
  pIC50: 5.36

## COc1cc2nc(C)nc(NC(C)c3ccc(-c4ccccc4[C@@H](C)N)s3)c2cc1OC (stereo in doubt) [Example 359, N-[1-(5-{2-[1-aminoethyl]phenyl}thiophen-2-yl)ethyl]-6,7-dimethoxy-2-methylquinazolin-4-amine]
[1]
  pIC50: 6.63
[2]
  pIC50: 6.52

## COCCOc1cc2c(N[C@H](C)c3cccc(-c4cn[nH]c4)c3)nc(C)nc2cc1OC [Example 348, 7-methoxy-6-(2-methoxyethoxy)-2-methyl-N-{(1R)-1-[3-(1H-pyrazol-4-yl)phenyl]-ethyl}quinazolin-4-amine]
[1]
  pIC50: 6.16
[2]
  pIC50: 6.12

## COc1cc2nc(C)nc(NC(C)c3ccc(-c4ccccc4[C@H](C)N)s3)c2cc1OC (stereo in doubt) [Example 360, N-[1-(5-{2-[1-aminoethyl]phenyl}thiophen-2-yl)ethyl]-6,7-dimethoxy-2-methylquinazolin-4-amine]
[1]
  pIC50: 6.71
[2]
  pIC50: 6.72
